Tested on: EGFR1
Test: EGFR1 expression and phosphorylation level in PC9 subcutaneous transplant model (western blotting)
Type: in vivo, nude mouse
Details: for Phosphorylation level of EGFR1 (% of control) / EGFR1 expression level (% of control): PC9 tumor in nude mouse; for Phosphorylation level of EGFR1 (% of control): anti-EGFR pY1068 western blotting
Procedure: PC9 was cultured in RPMI1640 (containing 10% FBS) in a 5% carbon dioxide incubator to about 80% confluence. The cells were collected with trypsin-EDTA according to a routine procedure and 5×10^7 cells/mL suspension was prepared with a phosphate buffer. Then, 0.1 mL each of the resulting suspension was subcutaneously transplanted to the side of a nude mouse. Eight days after the transplantation, E7820 was orally administered for 50 mg/kg or 200 mg/kg twice a day for a week. One week after the start of sadministration, tumors were removed to prepare tumor cell lysates with various protease inhibitors and a cell lysis solution containing 10% glycerol and 1% Triton X-100 in ice. For each tumor cell lysate, an equal amount of protein was fractionated by SDS-PAGE and transferred onto a nitrocellulose membrane (Hybond ECL, Amersham Biosciences). Then, western blotting was performed by using an anti-EGFR1 antibody (Santa Cruz Biotechnology) or an anti-EGFR pY1068 antibody (anti-phosphorylated-EGFR1 antibody) (Cell Signaling) and horse radish peroxidase-labeled anti-mouse IgG antibody (secondary antibody) (Cell Signaling) according to a routine procedure.
Detection and quantification of each band were carried out as follows. First, each band was forced to chemically develop a color with Chemiluminescent Substrate (PIERCE), which was then captured as a digital image with Image Master VDS-CL (Amersham Pharmacia Biotech, Tokyo). The digital images were saved as TIF files and each band was numerically converted with Image Master total Lab (version 1.00, Amersham Pharmacia Biotech, Tokyo).

[1] = PC9 transplanted tumors, dose-dependent, western blotting

## Cc1ccc(NS(=O)(=O)c2cccc(C#N)c2)c2[nH]cc(C#N)c12 [E7820, N-(3-cyano-4-methyl-1H-indole-7-yl)-3-cyanobenzenesulfonamide]
[1]
  Effect on EGFR1 expression level (in words): decreased the EGFR1 expression level
  Effect on phosphorylation of EGFR1 (in words): inhibited phosphorylation of EGFR1
50 mg/kg orally twice a day for a week
  Phosphorylation level of EGFR1 (% of control): 59 % of control
50 mg/kg orally twice a day for a week, western blotting
  EGFR1 expression level (% of control): 63 % of control
200 mg/kg orally twice a day for a week
  Phosphorylation level of EGFR1 (% of control): 51 % of control
200 mg/kg orally twice a day for a week, western blotting
  EGFR1 expression level (% of control): 40 % of control

Source: patent US20100291592A1, “NOVEL MARKER FOR SENSITIVITY AGAINST SULFONAMIDE COMPOUND” (priority 2006, published 2010)
